pEC50, pKi: −log10 of the molar value.
Assays:
[1] = target: T1, human PR (progesterone receptor) (Homo sapiens, UniProt P06401); assay: Nuclear hormone receptor competition binding assay, PR; conditions: HEK293 lysate overexpressing human PR, [3H]-methyltrienolone; mean of n=7
T1 construct: expressed in transfected cells; host or cells: HEK293 (293-PR lysate)
T1 sequence (P06401 1-933): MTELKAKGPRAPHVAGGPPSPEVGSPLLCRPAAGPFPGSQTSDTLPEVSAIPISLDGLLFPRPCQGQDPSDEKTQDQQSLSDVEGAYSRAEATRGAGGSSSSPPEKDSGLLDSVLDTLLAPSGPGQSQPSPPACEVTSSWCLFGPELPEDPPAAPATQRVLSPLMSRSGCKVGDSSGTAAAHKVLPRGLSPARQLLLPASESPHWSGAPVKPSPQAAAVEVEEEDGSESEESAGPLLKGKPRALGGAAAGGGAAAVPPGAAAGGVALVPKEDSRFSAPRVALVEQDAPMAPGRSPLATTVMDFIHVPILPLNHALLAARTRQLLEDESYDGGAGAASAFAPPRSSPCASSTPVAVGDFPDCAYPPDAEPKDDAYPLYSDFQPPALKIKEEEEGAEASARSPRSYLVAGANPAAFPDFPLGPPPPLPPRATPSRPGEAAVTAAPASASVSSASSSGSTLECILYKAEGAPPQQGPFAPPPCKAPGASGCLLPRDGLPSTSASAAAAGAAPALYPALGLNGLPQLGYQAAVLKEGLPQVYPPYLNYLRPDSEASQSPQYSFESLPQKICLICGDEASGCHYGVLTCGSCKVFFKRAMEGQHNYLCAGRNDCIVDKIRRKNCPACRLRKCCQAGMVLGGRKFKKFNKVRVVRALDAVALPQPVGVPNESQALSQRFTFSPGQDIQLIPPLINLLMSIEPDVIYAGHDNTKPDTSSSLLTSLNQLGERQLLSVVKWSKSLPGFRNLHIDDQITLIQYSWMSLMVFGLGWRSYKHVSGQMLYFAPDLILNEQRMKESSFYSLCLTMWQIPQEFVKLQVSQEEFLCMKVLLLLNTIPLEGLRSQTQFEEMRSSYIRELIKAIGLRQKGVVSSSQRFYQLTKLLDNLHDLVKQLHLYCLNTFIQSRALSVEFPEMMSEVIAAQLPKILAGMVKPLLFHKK
Description: Cell lysates from human embryonic kidney HEK293 cells overexpressing human GR (glucocorticoid receptor), AR (androgen receptor), MR (mineralocorticoid receptor), or PR (progesterone receptor) are used for receptor-ligand competition binding assays to determine Ki values.
Briefly, steroid receptor competition binding assays are run in a buffer containing 20 mM Hepes buffer (pH=7.6), 0.2 mM EDTA, 75 mM NaCl, 1.5 mM MgCl2, 20% glycerol, 20 mM sodium molybdate, 0.2 mM DTT (dithiothreitol), 20 μg/ml aprotinin and 20 μg/ml leupeptin. Typically, steroid receptor binding assays include radio-labeled ligands, such as 0.3 nM [^3H]-dexamethasone for GR binding, 0.36 nM [^3H]-methyltrienolone for AR binding, 0.25 nM [^3H]-aldosterone for MR binding, and 0.29 nM [^3H]-methyltrienolone for PR binding, and either 20 μg 293-GR lysate, 22 μg 293-AR lysate, 20 μg 293-MR lysate or 40 μg 293-PR lysate per well. Assays are typically run in 96-well format. Competing test compounds are added at various concentrations ranging from about 0.01 nM to 10 μM. Non-specific binding is determined in the presence of 500 nM dexamethasone for GR binding, 500 nM aldosterone for MR binding, or 500 nM methyltrienolone for AR and PR binding. […] After an incubation of 2 hours, plates are read in a Wallac Microbeta counter. […]

[2] = target: T2, human progesterone receptor (PR) (Homo sapiens, UniProt P06401); assay: Nuclear hormone receptor functional modulation assay (GRE-luciferase reporter, HEK293), PR; assay type: cell-based; conditions: agonist mode, mean of n=4 or 5
T2 construct: expressed in transfected cells; host or cells: HEK293, transient transfection, CMV promoter plasmid
T2 sequence (P06401 1-933): T1 sequence (P06401 1-933)
Description: The solvents, reagents, and ligands employed in the functional assay are readily available from commercial sources, or can be prepared by one of ordinary skill in the art.
Human embryonic kidney HEK293 cells are transfected with steroid hormone receptor and reporter gene plasmids using Fugene™ transfection reagent. Briefly, the reporter plasmid containing two copies of probasin ARE and TK(thymidine kinase) promoter upstream of the luciferase reporter cDNA, is transfected into HEK293 cells with a plasmid constitutively expressing human androgen receptor (AR) using viral CMV(cytomegalovirus) promoter. The reporter plasmid containing two copies of GRE and TK promoter upstream of the luciferase reporter cDNA is transfected with a plasmid constitutively expressing either human glucocorticoid receptor (GR), human mineralocorticoid receptor (MR), or human progesterone receptor (PR) using viral CMV promoter. […] After 24-hours incubation with test compounds, cells are lysed and luciferase activity is determined using standard techniques.
Data are fitted to a four parameter-fit logistic curve fit to determine EC50 values. […] IC50 values may be determined similarly using antagonist mode assay data. Percent inhibitions may also be determined relative to the response in the presence of agonist alone, as described above.

## CC/C(=C1\c2ccc(F)cc2OCc2ncccc21)c1cccc(NS(C)(=O)=O)c1 [Compound (I), (E)-N-{3-[1-(8-Fluoro-11H-10-oxa-1-aza-dibenzo[a,d]cyclohepten-5-ylidene)-propyl]-phenyl}-methanesulfonamide]
[1]
  pKi: ~7.49
[2]; relative to 30 nM promegestone
  efficacy in activating transcription, PR: about 54%
[2]; read-out: EC50 in activating transcription, PR
  pEC50: < 5.00

From patent publication US8101761B2, “(E)-N-{3-[1-(8-fluoro-11H-10-OXA-1-AZA-dibenzo [A,D] cyclohepten-5ylidene)-propyl]-phenyl}-methanesulfonamide as glucocorticoid receptor modulator for the treatment of rheumatoid arthritis” (Eli Lilly and Company, priority 2008, dated 2012)
